Literature values as cited in patent publication US20210319872A1, “DRUG AND DEVICE COMBINATION PRODUCTS WITH IMPROVED SAFETY AND EFFICACY PROFILES” (priority 2016, published 2021).
Where two headings read alike, the source gives them in different places. Values belong to the compound of their own block, whether it stands above or below them.

[1] = subependymal giant cell astrocytoma

- Pulmonary embolism (PNET): 2.5%
- Thrombocytopenia, All grades (Transplant): ≤ 10%
- Thrombotic thrombocytopenic purpura (Transplant): < 1%
- Non-infectious pneumonia (in vivo): ≤ 19%
- Constipation (kidney transplant): 38%
- Cough (kidney transplant): 7%
- Fatigue (kidney transplant): 9%
- Fever (kidney transplant): 19%
- Hypercholesterolemia (kidney transplant): 17%
- Hyperlipidemia (kidney transplant): 21%
- Hypertension (kidney transplant): 30%
- Hypophosphatemia (kidney transplant): 13%
- Increased glucose level, All grades (kidney transplant): 12%
- Infectious disease (kidney transplant): 62%
- Leukopenia (kidney transplant): 3%
- Nausea (kidney transplant): 29%
- Peripheral edema (kidney transplant): 45%
- Serum creatinine raised (kidney transplant): 18%
- Stomatitis (kidney transplant): 8%
- Upper respiratory infection (kidney transplant): transplant, 16%)
- Urinary tract infectious disease (kidney transplant): 16%; kidney transplant, 22%)
- Vomiting (kidney transplant): 15%
- Fever (liver transplant): transplant, 13%)
- Hyperlipidemia (liver transplant): 24%
- Hypertension (liver transplant): 17%
- Impaired wound healing (liver transplant): liver transplant, 11%)
- Infectious disease (liver transplant): 50%
- Leukopenia (liver transplant): 12%
- Nausea (liver transplant): 14%
- Peripheral edema (liver transplant): 18%
- Menorrhagia (renal angiomyolipoma): angiomyolipoma, 10%)
- Hemorrhage (renal cell carcinoma): 3%
- Pneumonia (renal cell carcinoma): 6%
- Mental disorder [1]: astrocytoma, 21%)
- Pleural effusion (tumors): 7%
- Sepsis (tumors): < 1%
SMILES: CO[C@H]1C[C@@H]2CC[C@@H](C)[C@@](O)(O2)C(=O)C(=O)N2CCCC[C@H]2C(=O)O[C@H]([C@H](C)C[C@@H]2CC[C@@H](OCCO)[C@H](OC)C2)CC(=O)[C@H](C)/C=C(\C)[C@@H](O)[C@@H](OC)C(=O)[C@H](C)C[C@H](C)/C=C/C=C/C=C/1C [Afinitor]
- Angioedema (Transplant): Other: Angioedema (Transplant, up to 6.8%), Sepsis (tumors less
- Hemolytic uremic syndrome (Transplant): Renal: Hemolytic uremic syndrome (Transplant, less than 1%),
- Pericardial effusion (Transplant): Cardiovascular: Pericardial effusion (Transplant, less than 1%)
- Thrombotic microangiopathy (Transplant): < 1%), Thrombotic thrombocytopenic purpura (Transplant, less than
- Hypoalbuminemia (breast cancer): Hypoalbuminemia (breast cancer, 33%), Hypophosphatemia
- Interstitial lung disease (in vivo): Respiratory: Interstitial lung disease (Less than 1%), Non-
- Anemia, All grades (kidney transplant): transplant, 26%), Decreased lymphocyte count, all grades (tumors,
- Diarrhea (kidney transplant): kidney transplant, 19%; liver transplant, 19%), Nausea (tumors,
- Dyslipidemia (kidney transplant): Endocrine metabolic: Dyslipidemia (kidney transplant, 15%),
- Impaired wound healing (kidney transplant): Immunologic: Impaired wound healing (kidney transplant, 35%;
- Serious side effect, Respiratory (listed without frequency): Pneumocystis pneumonia
- Diarrhea (liver transplant): kidney transplant, 19%; liver transplant, 19%), Nausea (tumors,
- Amenorrhea (renal angiomyolipoma): Reproductive: Amenorrhea (renal angiomyolipoma, 15%),
- Otitis media (renal angiomyolipoma): Otic: Otitis media (renal angiomyolipoma, 6%)
- Seizure (renal angiomyolipoma): Neurologic: Seizure (renal angiomyolipoma, 5%)
- Renal failure (renal cell carcinoma): Renal failure (renal cell carcinoma, 3%), Thrombosis of renal
- Partial thromboplastin time increased [1]: giant cell astrocytoma, 72%), Thrombocytopenia, All grades

- Neutropenia (in vivo): 2.4%
SMILES: Clc1ccccc1CN1CCc2sccc2C1 [Ticlopidine]

SMILES: O=c1n(CCCN2CCN(c3cccc(Cl)c3)CC2)nc2ccccn12 [Trazodone (Desyrel)]
- Backache (in vivo): Musculoskeletal: Backache (5%)
- Confusion (in vivo): Neurologic: Confusion (up to 5.7%), Dizziness (25%), Headache
- Constipation (in vivo): Gastrointestinal: Constipation (7% to 8%), Diarrhea (up to 9%),
- Diarrhea (in vivo): Gastrointestinal: Constipation (7% to 8%), Diarrhea (up to 9%),
- Dizziness (in vivo): Neurologic: Confusion (up to 5.7%), Dizziness (25%), Headache
- Fatigue (in vivo): Other: Fatigue (5.7% to 15%)
- Hypersensitivity reaction (in vivo): Immunologic: Hypersensitivity reaction (less than 1%)
- Hypotension (in vivo): Cardiovascular: Cardiac dysrhythmia, Hypotension (3.8% to 7%),
- Nausea (in vivo): Nausea (21%), Vomiting (at least 1%), Xerostomia (14% to 33.8%)
- Vomiting (in vivo): Nausea (21%), Vomiting (at least 1%), Xerostomia (14% to 33.8%)
- Xerostomia (in vivo): Nausea (21%), Vomiting (at least 1%), Xerostomia (14% to 33.8%)

SMILES: CCC[C@H](N[C@@H](C)C(=O)N1[C@H](C(=O)O)C[C@@H]2CCCC[C@@H]21)C(=O)OCC [Perindopril (Aceon)]
- Angioedema (in vivo): Other: Angioedema (0.1% to 0.5%)
- Backache (in vivo): Musculoskeletal: Backache (5.8%)
- Cough (in vivo): Respiratory: Cough (12%)
- Dizziness (in vivo): Neurologic: Asthenia, Dizziness (8.2%), Headache
- Orthostatic hypotension (in vivo): Cardiovascular: Cardiac arrest, Orthostatic hypotension (0.8%)

SMILES: O=C1Nc2ccc(Cl)cc2C(c2ccccc2Cl)=NC1O (centres unmarked) [Lorazepam (Ativan)]
- Acidosis (in vivo): Endocrine metabolic: Acidosis (less than 1%)
- Asthenia (in vivo): Neurologic: Asthenia (4.2%), Dizziness (6.9%), Sedated (15.9%),
- Common side effects, listed without incidence (in vivo): Psychiatric: Depression
- Dizziness (in vivo): Neurologic: Asthenia (4.2%), Dizziness (6.9%), Sedated (15.9%),
- Sedated (in vivo): Neurologic: Asthenia (4.2%), Dizziness (6.9%), Sedated (15.9%),
- Serious side effects, listed without incidence or only as rare (in vivo): Psychiatric: Delirium
- Unsteadiness present (in vivo): Unsteadiness present (3.4%)

SMILES: CCOC(=O)C1=C(COCCN)NC(C)=C(C(=O)OC)C1c1ccccc1Cl (centres unmarked) [Amlodipine (Norvasc, Lotrel)]
- Abdominal pain (in vivo): Gastrointestinal: Abdominal pain (1.6%), Nausea (2.9%.)
- Dizziness (in vivo): Neurologic: Dizziness (Up to 3.4%), Headache (7.3%),
- Fatigue (in vivo): Other: Fatigue (4.5%)
- Flushing (in vivo): Cardiovascular: Flushing (0.7% to 2.6%), Palpitations (Up to
- Headache (in vivo): Neurologic: Dizziness (Up to 3.4%), Headache (7.3%),
- Nausea (in vivo): Gastrointestinal: Abdominal pain (1.6%), Nausea (2.9%.)
- Palpitations (in vivo): ≤ 4.5%), Peripheral edema (Up to 10.8%)
- Peripheral edema (in vivo): ≤ 4.5%), Peripheral edema (Up to 10.8%)
- Somnolence (in vivo): Somnolence (1.4%)
